# According to US20240383784A1, “ANTIMICROBIAL SYSTEM AND METHOD” (KEMIRA OYJ, priority 2021, published 2024):
# Assays:
# [1] = test system: Pseudoxanthomonas taiwanensis biofilms; assay: Biofilm test on 96-microwell peg lids in synthetic paper machine water, Crystal Violet quantification; type: cell-based; conditions: SPW; for Impact (biofilm reduction percentage): 45° C., 150 rpm
# Description: (§1) Pure cultures of Meiothermus silvanus, a microbe species commonly found in paper machine biofilms (Ekman J, Journal of Industrial Microbiology & Biotechnology 34:203-211) and Pseudoxanthomonas taiwanensis, another species commonly found in paper machine environments (Desjardins, E & Beaulieu, C, Journal of Industrial Microbiology & Biotechnology 30:141-145) were used to study the efficacy of various chemicals to prevent biofilm formation.
# (§2) Biofilm tests were done in fibre-containing synthetic paper machine water, SPW (prepared according to Peltola, et al., J. Ind. Microbiol. Biotechnol. 38: 1719-1727) using 96-microwell plate wells with peg lids (Thermo Fischer Scientific Inc., USA). Plates were incubated at 45° C. with a rotary shaking (150 rpm) providing high flow in each well.
# (§3) Wells of 96-microwell plates with peg-lids were filled with SPW and inoculated with the pure bacterial cultures. Biofilm was grown at 45° C. with a rotary shaking (150 rpm) for 24 hours without addition of any chemical compound to be tested.
# (§4) After 24 hours from starting the test, the wells were emptied and a fresh solution of SPW, inoculated with the pure bacterial cultures and with different amounts of chemical compounds to be tested were added and the original peg-lid was placed back in place. After an additional 24 hours the wells were emptied and the biofilm amount on the pegs was quantified.
# (§5) The amount of biofilm formed on the peg surfaces was quantified with a staining solution by adding 200 μl of 1% Crystal Violet (Merck Millipore KGaA, Germany) in methanol to each well in a clean 96-well plate and placing the biofilm-containing peg-lid on it. After 3 minutes the wells were emptied and the wells and pegs were rinsed 3 times with tap water. Finally the peg-lid was placed in a clean 96-well plate, the attached Crystal Violet was dissolved into ethanol and the absorbance at 595 nm was measured.
# (§6) All parts per million (ppm) amounts given in Examples 1-2 are as active ingredients. The Impact values are calculated as biofilm reduction percentages based on a comparison with no added chemicals. A positive value indicates a reduction in amount of biofilm whereas a negative value indicates an increase in the amount of biofilm.
# [2] = test system: Meiothermus silvanus biofilms; assay: as above; type: cell-based; conditions: SPW; for Impact (biofilm reduction percentage): 45° C., 150 rpm
# Description: as §1, §2, §3, §4, §5, §6
# [3] = Sodium hypochlorite 4 ppm alone
# [4] = Sodium hypochlorite 8 ppm alone
# [5] = on its own, up to a dosage of 8 or 16 ppm
structure (smiles),measurement,setting,value
"Cc1ccc(S(=O)(=O)C=CC#N)cc1 [Compound A, 3-[(4-methylphenyl)sulphonyl]-2-propenenitrile]",Impact (biofilm reduction percentage),"[1]; Compound A 0.15 ppm alone, Table 2",5%
same,Impact (biofilm reduction percentage),"[1]; Compound A 0.15 ppm alone, Table 4",19%
same,Impact (biofilm reduction percentage),"[1]; Compound A 0.3 ppm alone, Table 2",7%
same,biofilm reduction efficacy (in words),[1]; at low dosages,ineffective
same,Impact (biofilm reduction percentage),"[2]; Compound A 0.15 ppm alone, Table 1",7%
same,Impact (biofilm reduction percentage),"[2]; Compound A 0.3 ppm alone, Table 1",−7%
same,Impact (biofilm reduction percentage),"[2]; Compound A 0.3 ppm alone, Table 3",−15%
same,Impact (biofilm reduction percentage),"[2]; Compound A 0.45 ppm alone, Table 3",11%
same,biofilm reduction efficacy (in words),[2]; at low dosages,ineffective
"NCl [MCA, Monochloramine]",Impact (biofilm reduction percentage),[1]; MCA 0.5 ppm alone,−11%
same,Impact (biofilm reduction percentage),[1]; MCA 1 ppm alone,−3%
same,Impact (biofilm reduction percentage),[1]; MCA 1.5 ppm alone,7%
same,biofilm reduction efficacy (in words),[1]; at low dosages,ineffective
same,Impact (biofilm reduction percentage),[2]; MCA 0.5 ppm alone,−22%
same,Impact (biofilm reduction percentage),[2]; MCA 1 ppm alone,4%
same,Impact (biofilm reduction percentage),[2]; MCA 1.5 ppm alone,−2%
same,biofilm reduction efficacy (in words),[2]; at low dosages,ineffective
"OCl [Sodium hypochlorite, reference compound]",Impact (biofilm reduction percentage),[1]; [3],−3%
same,Impact (biofilm reduction percentage),[1]; [4],−5%
same,Impact (biofilm reduction percentage),[1]; Sodium hypochlorite 16 ppm alone,0%
same,biofilm reduction efficacy (in words),[1]; [5],ineffective
same,Impact (biofilm reduction percentage),[2]; Sodium hypochlorite 2 ppm alone,−71%
same,Impact (biofilm reduction percentage),[2]; [3],1%
same,Impact (biofilm reduction percentage),[2]; [4],5%
same,biofilm reduction efficacy (in words),[2]; [5],ineffective
